Reference: patent US20250041284A1, “TREATMENT OF NEUROLOGICAL DISORDERS” (Praxis Precision Medicines, Inc., priority 2022, published 2025)
Values joined by “and” are separate entries in the source; they are usually repeats but may differ in a detail not shown here. Identical values can stand only once. “Also recorded” adds a separate entry of the source.

Tests used:
human NaV1.6 = molecular target: T1, human NaV1.6 (Homo sapiens, UniProt Q9UQD0); assay: Peak INa tonic block (TB), automated patch clamp in HEK cells; format: cell-based
T1 construct: HEK-293 cell lines stably expressing human NaV1.6 (NP_055006) were used; expressed in transfected cells
T1 sequence (Q9UQD0 whole entry): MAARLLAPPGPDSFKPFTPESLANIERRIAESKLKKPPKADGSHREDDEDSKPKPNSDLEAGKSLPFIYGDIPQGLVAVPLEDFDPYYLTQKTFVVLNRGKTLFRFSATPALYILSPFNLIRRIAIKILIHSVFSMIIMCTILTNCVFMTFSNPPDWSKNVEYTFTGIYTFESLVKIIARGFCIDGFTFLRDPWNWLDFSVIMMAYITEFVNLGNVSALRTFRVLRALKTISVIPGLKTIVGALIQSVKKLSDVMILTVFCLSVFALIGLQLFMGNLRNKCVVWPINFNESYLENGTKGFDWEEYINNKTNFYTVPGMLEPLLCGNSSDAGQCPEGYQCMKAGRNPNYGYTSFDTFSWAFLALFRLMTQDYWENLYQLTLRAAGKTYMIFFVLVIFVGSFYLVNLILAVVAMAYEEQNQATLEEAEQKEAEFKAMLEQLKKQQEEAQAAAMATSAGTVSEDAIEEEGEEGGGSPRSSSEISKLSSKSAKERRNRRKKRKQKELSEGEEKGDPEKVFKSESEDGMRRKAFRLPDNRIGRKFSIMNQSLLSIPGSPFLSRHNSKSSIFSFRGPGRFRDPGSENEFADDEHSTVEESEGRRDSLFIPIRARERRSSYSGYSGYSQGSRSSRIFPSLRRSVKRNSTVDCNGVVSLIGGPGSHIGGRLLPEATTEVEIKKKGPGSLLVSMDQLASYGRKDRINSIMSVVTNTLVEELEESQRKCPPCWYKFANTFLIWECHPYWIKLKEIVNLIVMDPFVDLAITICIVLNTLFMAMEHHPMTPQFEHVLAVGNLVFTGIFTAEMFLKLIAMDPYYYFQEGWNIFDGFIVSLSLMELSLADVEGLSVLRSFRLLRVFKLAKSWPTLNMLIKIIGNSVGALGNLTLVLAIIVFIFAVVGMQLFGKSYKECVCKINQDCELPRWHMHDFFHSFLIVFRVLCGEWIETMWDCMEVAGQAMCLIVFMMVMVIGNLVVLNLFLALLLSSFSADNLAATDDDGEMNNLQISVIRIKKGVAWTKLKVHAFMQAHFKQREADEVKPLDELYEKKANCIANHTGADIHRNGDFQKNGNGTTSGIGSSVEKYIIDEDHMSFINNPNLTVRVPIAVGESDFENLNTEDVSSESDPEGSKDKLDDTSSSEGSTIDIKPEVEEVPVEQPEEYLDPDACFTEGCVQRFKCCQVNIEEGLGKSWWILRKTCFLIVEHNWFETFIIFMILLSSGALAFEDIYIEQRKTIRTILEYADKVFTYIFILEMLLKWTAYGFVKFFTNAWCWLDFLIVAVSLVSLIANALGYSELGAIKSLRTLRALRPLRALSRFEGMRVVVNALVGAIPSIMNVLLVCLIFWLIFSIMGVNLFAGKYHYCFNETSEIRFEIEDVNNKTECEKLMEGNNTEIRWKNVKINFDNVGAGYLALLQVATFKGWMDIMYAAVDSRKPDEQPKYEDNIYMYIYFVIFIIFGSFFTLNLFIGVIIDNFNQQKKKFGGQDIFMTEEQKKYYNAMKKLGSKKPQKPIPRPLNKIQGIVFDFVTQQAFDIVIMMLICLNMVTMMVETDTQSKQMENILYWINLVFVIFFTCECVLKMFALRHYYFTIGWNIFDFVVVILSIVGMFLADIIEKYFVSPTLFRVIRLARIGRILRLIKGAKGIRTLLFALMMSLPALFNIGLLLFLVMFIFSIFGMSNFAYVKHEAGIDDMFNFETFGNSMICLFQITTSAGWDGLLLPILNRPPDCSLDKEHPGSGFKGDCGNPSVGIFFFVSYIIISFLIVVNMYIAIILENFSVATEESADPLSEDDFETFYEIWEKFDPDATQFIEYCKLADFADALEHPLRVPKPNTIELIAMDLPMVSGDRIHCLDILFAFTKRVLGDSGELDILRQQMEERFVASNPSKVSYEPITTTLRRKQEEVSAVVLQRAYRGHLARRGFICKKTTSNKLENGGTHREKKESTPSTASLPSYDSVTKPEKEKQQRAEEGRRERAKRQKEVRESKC

[1] = system: psychomotor seizures induced by 6-Hz electrical stimulation in wild-type CD-1 mice; assay: 6-Hz psychomotor seizure model; format: in vivo, mouse; set-up: EC50 value, protection from psychomotor seizures: unit not given here
Text: This study evaluated the efficacy of Compound 1 in attenuating psychomotor seizures induced by 6-Hz electrical stimulation at two different stimulation intensities (32 and 44 mA) in wild-type CD-1 mice. Psychomotor seizures are defined as the expression of at least one of the following behaviors: stun/immobility, forelimb clonus, straub tail or lateral head movement within 30 seconds of the stimulus. Protection is defined as a complete absence of the above behaviors within 30 seconds of the stimulus. Doses of Compound 1 used were 1 mg/kg, 3 mg/kg and 6 mg/kg administered orally. Valproate (600 mg/kg, administered intraperitoneally) was used as a positive control.
Male CD-1 mice (Charles River Laboratories; St. Constant, Quebec, CAN) were used for the study. Body weights at the time the experiment was carried out were 30-40 grams. The mice were group-housed in polycarbonate cages according to standard operating procedures. Animals were maintained on a 12-hour light/12 hour dark cycle, with all experimental activities occurring during the light phase. Food and water were available ad libitum. Mice acclimated to the test facility for at least 72 hours prior to testing.
Treatment was conducted using Compound 1 and 35% 2-hydroxypropyl-β-cyclodextrin (35% HPBCD, used as a negative control). Compound 1 stock solution was prepared fresh each experiment day in 35% HPBCD. […] Valproate was prepared fresh each experiment day in a vehicle of saline and dosed at 10 mL/kg.
Mice were administered vehicle (35% HPBCD), a single dose of Compound 1 (1 mg/kg, 3 mg/kg or 6 mg/kg) or valproate (600 mg/kg). Vehicle and Compound 1 were administered via oral gavage 30 minutes prior to […]. Valproate was administered as an intraperitoneal injection 60 minutes prior to the electrical stimulus.
Immediately prior to conducting the 6-Hz seizure test, a brief neurological assessment was performed. Each animal was visually assessed and received a score from 0 to 3 according to the following scoring system::neurological score of 0 corresponds to a normal status; neurological score of 1 corresponds to a modest decrease in spontaneous activity; neurological score of 2 corresponds to a marked decrease in spontaneous activity; and neurological score of 3 corresponds to loss of righting reflex.
Corneal electrodes moistened with saline (ECT unit 57800; Ugo Basile) were used to deliver the electrical stimulus (6-Hz, 0.2 millisecond pulse width, 3 seconds duration). The current delivered was either 32 mA or 44 mA. Immediately after the electrical stimulus, each mouse was monitored continuously for 30 seconds by an observer blinded to the treatment group. […] Mice were scored for the presence or absence of each seizure behavior, with a maximum total score of 4. […] At the end of the 6-Hz seizure test, plasma and brain samples were collected.
Mice were anesthetized with isoflurane, whole blood was collected via cardiac puncture and brains were harvested. Whole blood was collected in potassium EDTA tubes and centrifuged at ˜3300 g for 5 minutes at 4° C. to isolate plasma. Plasma and brain samples were stored at −80° C. and analyzed to determine levels of Compound 1.
All statistical analyses were conducted using GraphPad Prism 9.3. Seizure scores were compared using Kruskal-Wallis test, followed by Dunn's post hoc and p<0.05 was considered statistically significant.

in vivo = settings: rat
hNaV1.6 [2] = molecular target: T2, hNaV1.6 (Homo sapiens, UniProt Q9UQD0); assay: Peak INa voltage-dependent block (VDB), automated patch clamp in HEK cells; format: cell-based
T2 construct: expressed in transfected cells; host or cells: HEK cells
T2 sequence (Q9UQD0 whole entry): as above

hNaV1.6 [3] = molecular target: T2, hNaV1.6; assay: Apparent binding (KON) and unbinding (KOFF) rates inferred from INa inhibition kinetics; format: cell-based
[4] = recovery from inhibition of hNaV1.6 INa

CCOC(F)(F)c1nnc2ccc(-c3cnc(OCC(F)(F)F)c(F)c3)cn12 [Compound 1]
Ratio to Pers. INa (Peak INa TB) (human NaV1.6; peak INa TB IC50 / persistent INa IC50): 68 | Peak INa TB Hill slope (human NaV1.6; tonic block): (1.0) | IC50 (human NaV1.6; tonic block, Vm -120 mV, 0.2 Hz): 8.71 µM | seizure score ([1]; 6 mg/kg orally, 32 and 44 mA): significantly reduced the seizure score; also recorded: reduced seizure scores | neurological scores before 6-Hz test ([1]; 1, 3, 6 mg/kg orally): all neurological scores were zero; also recorded: Neurological scores for all doses of Compound 1 tested were normal | Plasma EC50 ([1]; 32 mA, 95% confidence interval in parentheses): 385 (383-386) ng/mL | Plasma EC50 ([1]; 44 mA): >441 ng/mL | ED50 ([1]; Mus musculus, dose-response curve, read-out: ED50 value, protection from psychomotor seizures): 1.9 mg/kg | EC50 value, protection from psychomotor seizures ([1]; plasma concentration-response curve): 147 | AUC(0-inf) (in vivo): 7500 ng·h/mL | Ratio to Pers. INa (Peak INa VDB) (hNaV1.6 [2]; VDB IC50 / persistent INa IC50): 0.56 | Peak INa VDB Hill slope (hNaV1.6 [2]; voltage-dependent block): (1.0) | IC50 (hNaV1.6 [2]; voltage-dependent block, Vm inactivation V1/2): 0.072 µM | apparent KON (hNaV1.6 [3]; development of inhibition of hNaV1.6 INa): 4.2e+06 M⁻¹ s⁻¹ and 4.168e+06 M⁻¹ s⁻¹ | kon (hNaV1.6 [3]; development of inhibition of hNaV1.6 INa, read-out: apparent KON): 4.2e+06 M⁻¹ s⁻¹ | KON versus carbamazepine (hNaV1.6 [3]; fold faster): > 1,500 × | KOFF slower than carbamazepine (hNaV1.6 [3]; fold slower unbinding): 33 × | apparent KOFF (hNaV1.6 [3]; [4]): 1.7 s⁻¹ and 1.72 s⁻¹ | koff (hNaV1.6 [3]; [4]): 1.7 s⁻¹
